Results as given in the NIST ThermoML archive (doi:10.1016/j.fluid.2013.11.034).
± gives the expanded uncertainty stated by the source.

Key:
[1] = 101.33 kPa, Liquid, Vibrating tube method
[2] = refractive index (Na D-line) (dimensionless); settings: 298.15 K; 101.33 kPa; Liquid; Standard Abbe refractometry

mass density ([1]; 293.15 K): 1371.4 ± 1.2 kg/m3
mass density ([1]; 298.15 K): 1367.23 ± 1.1 kg/m3
refractive index [2]: 1.40926 ± 0.0006
SMILES: CCCCn1cc[n+](C)c1.F[P-](F)(F)(F)(F)F [1-butyl-3-methylimidazolium hexafluorophosphate]
